Data: US6166063A, “N-(substituted glycyl)-2-cyanopyrrolidines, pharmaceutical compositions containing them and their use in inhibiting dipeptidyl peptidase-IV” (Novartis AG, priority 1999, dated 2000)

Columns and labels:
insulin resistant rats = assay: Early insulin response to an oral glucose challenge in insulin resistant rats; format: in vivo, Male Sprague-Dawley rats; settings: 10 μmol/kg oral in CMC, 30 min before oral glucose 1 g/kg; high fat diet rats; % increase of the mean of the control animals
Method: Male Sprague-Dawley rats that had been fed a high fat diet (saturated fat=57% calories) for 2-3 weeks were fasted for approximately 2 hours on the day of testing, divided into groups of 8-10, and dosed orally with 10 μmol/kg of the test compounds in CMC. An oral glucose bolus of 1 g/kg was administered 30 minutes after the test compound directly into the stomach of the test animals. Blood samples, obtained at various timepoints from chronic jugular vein catheters, were analyzed for plasma glucose and immunoreactive insulin (IRI) concentrations, and plasma DPP-IV activity. Plasma insulin levels were assayed by a double antibody radioimmunoassay (RIA) method using a specific anti-rat insulin antibody from Linco Research (St. Louis, Mo.). The RIA has a lower limit of detection of 0.5 μU/mL with intra- and inter-assay variations of less than 5%. Data are expressed as % increase of the mean of the control animals. Upon oral administration, each of the compounds tested amplified the early insulin response which led to an improvement in glucose tolerance in the insulin resistant test animals.

rat plasma DPP-IV = rat plasma DPP-IV (Rattus norvegicus, UniProt P14740); assay: DPP-IV inhibition in rat plasma
Chain of rat plasma DPP-IV (P14740 37-767 limits assumed): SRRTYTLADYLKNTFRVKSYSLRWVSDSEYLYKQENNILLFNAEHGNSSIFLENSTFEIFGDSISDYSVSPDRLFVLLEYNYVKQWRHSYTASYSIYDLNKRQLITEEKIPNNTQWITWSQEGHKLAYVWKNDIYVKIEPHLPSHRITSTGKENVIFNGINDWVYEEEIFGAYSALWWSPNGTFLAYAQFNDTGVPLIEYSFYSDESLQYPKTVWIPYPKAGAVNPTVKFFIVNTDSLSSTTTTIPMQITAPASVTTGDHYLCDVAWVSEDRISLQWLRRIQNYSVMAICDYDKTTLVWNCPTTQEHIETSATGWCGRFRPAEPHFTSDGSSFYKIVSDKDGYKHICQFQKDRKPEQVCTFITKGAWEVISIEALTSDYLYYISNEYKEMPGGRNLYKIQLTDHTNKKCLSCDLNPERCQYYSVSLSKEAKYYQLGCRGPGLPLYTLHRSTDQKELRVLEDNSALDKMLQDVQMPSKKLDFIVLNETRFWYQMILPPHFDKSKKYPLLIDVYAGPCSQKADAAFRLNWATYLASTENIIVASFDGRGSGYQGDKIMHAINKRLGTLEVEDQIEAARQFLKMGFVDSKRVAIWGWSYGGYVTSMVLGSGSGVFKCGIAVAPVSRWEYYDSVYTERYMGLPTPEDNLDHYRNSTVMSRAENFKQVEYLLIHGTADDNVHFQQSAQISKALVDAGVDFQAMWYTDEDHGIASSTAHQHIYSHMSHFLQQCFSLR
Method: (§1) Briefly, 5 μl of plasma are added to 96-well flat-bottom microtiter plates (Falcon), followed by the addition of 5 μl of 80 mM MgCl2 in incubation buffer (25 mMHEPES, 140 mM NaCl, 1% RIA-grade BSA, pH 7.8). After a 60 min. incubation at room temperature, the reaction is initiated by the addition of 10 μl of incubation buffer containing 0.1 mM substrate (H-Glycine-Proline-AMC;AMC is 7-amino-4-methylcoumarin). The plates are covered with aluminum foil (or kept in the dark) and incubated at room temperature for 20 min. […] A fluorescence-concentration curve of free AMC is generated using 0-50 μM solutions of AMC in assay buffer. The curve generated is linear and is used for interpolation of substrate consumption (catalytic activity in nmoles substrate cleaved/min). As with the previous assay, the potency of the test compounds as DPP-IV inhibitors, expressed as IC50, is calculated from 8-point, dose-response curves using a 4 parameter logistic function.

human plasma DPP-IV = human plasma DPP-IV (Homo sapiens, UniProt P27487); assay: DPP-IV inhibition in human plasma; format: biochemical; settings: substrate H-Glycine-Proline-AMC, pH 7.8, room temperature, 8-point curve
Chain of human plasma DPP-IV (P27487 39-766 limits assumed): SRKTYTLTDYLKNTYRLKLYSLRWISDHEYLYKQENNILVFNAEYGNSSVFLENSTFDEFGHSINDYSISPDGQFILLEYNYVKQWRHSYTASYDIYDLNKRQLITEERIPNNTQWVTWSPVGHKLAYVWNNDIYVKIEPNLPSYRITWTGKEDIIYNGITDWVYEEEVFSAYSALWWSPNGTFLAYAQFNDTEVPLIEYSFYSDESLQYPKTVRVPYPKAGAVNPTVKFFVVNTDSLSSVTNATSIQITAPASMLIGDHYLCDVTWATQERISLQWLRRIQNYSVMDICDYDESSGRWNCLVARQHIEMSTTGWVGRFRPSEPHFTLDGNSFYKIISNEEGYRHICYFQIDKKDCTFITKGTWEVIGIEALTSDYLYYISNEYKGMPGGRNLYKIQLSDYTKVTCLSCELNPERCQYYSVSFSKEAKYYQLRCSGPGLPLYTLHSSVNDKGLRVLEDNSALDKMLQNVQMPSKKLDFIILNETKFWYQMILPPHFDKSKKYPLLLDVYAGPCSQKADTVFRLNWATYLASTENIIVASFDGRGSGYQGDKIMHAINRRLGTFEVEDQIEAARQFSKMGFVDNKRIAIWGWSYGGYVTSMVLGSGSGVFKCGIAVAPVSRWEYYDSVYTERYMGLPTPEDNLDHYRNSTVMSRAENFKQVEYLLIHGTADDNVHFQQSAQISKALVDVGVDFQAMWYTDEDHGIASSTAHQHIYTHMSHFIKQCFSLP
Method: as §1

IC50 (rat plasma DPP-IV)	IC50 (human plasma DPP-IV)	Structure (SMILES)	Increase of Insulin Response (insulin resistant rats)
–	–	N#C[C@@H]1CCCN1C(=O)CNC12CC3CC(CC(O)(C3)C1)C2 [Ex. 1, Pyrrolidine, 1-[(3-hydroxy-1-adamantyl)amino]acetyl-2-cyano-, (S)]	64%
12 nM	6 nM	N#C[C@@H]1CCCN1C(=O)CNC1C2CC3CC1CC(O)(C3)C2 (stereo partly drawn) [Ex. 8, Pyrrolidine, 1-[[(5-hydroxy-2-adamantyl)amino]-acetyl]-2-cyano-, (S)-]	–
